Assay results as given in US8653096B2, “Chemokine receptor antagonists and methods of use thereof” (Millennium Pharmaceuticals, Inc., priority 2001, dated 2014).

Biological target: T1, RANTES/MIP-1α chemokine receptor (CCR1) in THP-1 cell membranes (Homo sapiens, UniProt P32246)
T1 construct: Membranes were prepared from THP-1 cells (ATCC #TIB202); host or cells: THP-1 cells (membrane preparation)
T1 sequence (P32246 1-355): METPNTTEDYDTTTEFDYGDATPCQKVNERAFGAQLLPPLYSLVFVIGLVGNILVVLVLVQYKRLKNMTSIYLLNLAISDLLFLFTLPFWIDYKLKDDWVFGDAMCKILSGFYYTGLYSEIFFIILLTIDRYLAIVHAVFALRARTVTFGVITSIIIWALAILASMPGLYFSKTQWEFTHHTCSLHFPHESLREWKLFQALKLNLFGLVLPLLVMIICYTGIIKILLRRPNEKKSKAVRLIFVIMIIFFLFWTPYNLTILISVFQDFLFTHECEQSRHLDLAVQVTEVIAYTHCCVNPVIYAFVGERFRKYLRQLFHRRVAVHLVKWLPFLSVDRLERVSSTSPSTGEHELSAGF
Assay: Receptor binding assay: 125I-RANTES or 125I-MIP-1α binding to THP-1 cell membranes
Conditions: for IC50: inhibitor concentration required for 50% inhibition of specific binding, 125I-RANTES or 125I-MIP-1α as ligand, THP-1 cell membranes, read-out: IC50

Row | Molecule | IC50 [µM] | relative activity of resolved enantiomers (enantiomers resolved from the racemate on ChiralPak AD, test not named)
1 | COC1CN(CCC=C2c3cc(C(C)(C)O)ccc3OCc3ncccc32)CCC1(OC)c1ccc(Cl)cc1 (stereo not shown) [Example 475, 2-(5-{3-[4-(4-Chloro-phenyl)-3,4-dimethoxy-piperidin-1-yl]-propylidene}-5,11-dihydro-10-oxa-1-aza-dibenzo[a,d]cyclohepten-7-yl)-propan-2-ol] | < 1 | 
2 | CC(C)(C)CC(C)(C)NC(=O)N(Cc1ccc(Cl)cc1)C1CCN(CCC=C2c3cc(C(C)(C)O)ccc3OCc3ncccc32)C1 (stereo not shown) [Example 570, 1-(4-Chloro-benzyl)-1-(1-{3-[7-(1-hydroxy-1-methyl-ethyl)-11H-10-oxa-1-aza-dibenzo[a,d]cyclohepten-5-ylidene]-propyl}-pyrrolidin-3-yl)-3-(1,1,3,3-tetramethyl-butyl)-urea] | < 10 | 
3 | CC(C)(O)c1ccc2c(c1)C(=CCCN1CCC(NC(=O)Cc3ccc(Cl)cc3)CC1)c1cccnc1CO2 [Example 542, 2-(4-Chloro-phenyl)-N-(1-{3-[7-(1-hydroxy-1-methyl-ethyl)-11H-10-oxa-1-azadibenzo[a,d]cyclohepten-5-ylidene]-propyl}-piperidin-4-yl)-acetamide] | < 10 | 
4 | 4-(4-Chlorophenyl)-1-[3-(5,11-dihydro-9-methoxy[1]benzoxepino[2,3-b]pyridin-5-ylidene)propyl]piperidin-4-ol [Example 166] | < 10 | 
5 | COc1ccc2c(c1)C(=CCCN1CCC(n3c(=O)n(C)c4ccccc43)CC1)c1cccnc1CO2 [Example 68, 1-[3-(5,11-Dihydro-7-methoxy[1]benzoxepino[2,3-b]pyridin-5-ylidene)propyl]-4-(2-keto-3-methyl-1-benzimidazolinyl)piperidine] | < 10 | 
6 | CCOC(=O)[C@H]1CCCN(NC(=O)c2ccc3c(c2)C(=CCCN2CCC(O)(c4ccc(Cl)cc4)CC2)c2cccnc2CO3)C1 [Example 422, 4-(4-Chlorophenyl)-1-[3-(5,11-dihydro-7-(S-3-ethoxycarbonyl-piperidine-1-yl)-carbamoyl-[1]benzoxepino[2,3-b]pyridin-5-ylidene)propyl]piperidine-4-ol] | < 1 | 
7 | CC1(C)CN(CCC=C2c3cc(OCC(N)=O)ccc3OCc3ncccc32)CCC1(O)c1ccc(Cl)cc1 (stereo not shown) [Example 516, 2-(5-{3-[4-(4-Chloro-phenyl)-4-hydroxy-3,3-dimethyl-piperidin-1-yl]-propylidene}-5,11-dihydro-10-oxa-1-aza-dibenzo [a,d]cyclohepten-7-yloxy)-acetamide] | < 1 | 
8 | 4-(4-Chlorophenyl)-1-[3-(5,11-dihydro-7-cyclohexyloxycarbonyl-[1]benzoxepino[2,3-b]pyridin-5-ylidene)propyl]piperidine-4-ol [Example 425] | < 1 | 
9 | CCOc1ccc2c(c1)C(=CCCN1CCC(O)(c3ccc(Cl)cc3)CC1)c1ccccc1CO2 [Example 34, 4-(4-Chlorophenyl)-1-[3-(6,11-dihydro-2-ethoxydibenz[b,e]oxepin-11-ylidene)propyl]piperidin-4-ol] | < 1 | 
10 | CCCCOC(=O)c1ccc2c(c1)C(=CCCN1CCC(O)(c3ccc(Cl)cc3)CC1)c1ccccc1CO2 [Example 23, 1-[3-(2-Butoxycarbonyl-6,11-dihydrodibenz[b,e]oxepin-11-ylidene)propyl]-4-(4-chlorophenyl)piperidin-4-ol] | < 1 | 
11 | CC1(C)CN(CCC=C2c3cc(OCC(=O)O)ccc3OCc3ncccc32)CCC1(O)c1ccc(Cl)cc1 (stereo not shown) [Example 515, (5-{3-[4-(4-Chloro-phenyl)-4-hydroxy-3,3-dimethyl-piperidin-1-yl]-propylidene}-5,11-dihydro-10-oxa-1-aza-dibenzo[a,d]cyclohepten-7-yloxy)-acetic acid] | < 1 | 
12 | Nc1ccc2c(c1)C(=CCCN1CCC(O)(c3ccc(Cl)cc3)CC1)c1ccccc1CO2 [Example 31, 1-[3-(2-Amino-6,11-dihydrodibenz[b,e]oxepin-11-ylidene)propyl]-4-(4-chlorophenyl)piperidin-4-ol] | < 1 | 
13 | COc1ccc2c(c1)C(=CCCN1CCN(S(=O)(=O)c3ccc(C)cc3)CC1)c1cccnc1CO2 [Example 89, 1-[3-(5,11-Dihydro-7-methoxy[1]benzoxepino[2,3-b]pyridin-5-ylidene)propyl]-4-(p-tosyl)piperazine] | > 10 | 
14 | CC(C)(O)c1ccc2c(c1)C(=CCCN1CCC(Oc3ccc(C(F)(F)F)cc3)CC1)c1cccnc1CO2 [Example 497, 2-(5-{3-[4-(4-trifluoromethyl-phenoxy)-piperidin-1-yl]-propylidene}-5,11-dihydro-10-oxa-1-aza-dibenzo[a,d]cyclohepten-7-yl)-propan-2-ol] | < 10 | 
15 | 1-[3-(5,11-Dihydro-7-methoxy[1]benzoxepino[2,3-b]pyridin-5-ylidene)propyl]-4-(4-pyridyl)piperidin-4-ol [Example 149] | < 1000 | 
16 | CC(C)(O)c1ccc2c(c1)C(=CCCN1CCC(O)(c3ccc(Cl)cc3)C(O)C1)c1cccnc1CO2 (stereo not shown) [Example 470, 4-(4-Chloro-phenyl)-1-{3-[7-(1-hydroxy-1-methyl-ethyl)-11H-10-oxa-1-aza-dibenzo[a,d]cyclohepten-5-ylidene]-propyl}-piperidine-3,4-diol] | < 1 | 
17 | CCN1C(=O)c2ccccc2C(=CCCN2CCC(O)(c3ccc(Cl)cc3)CC2)c2ccccc21 [Example 40, 4-(4-Chlorophenyl)-1-[3-(6,11-dihydro-5-ethyl-6-oxo-5H-dibenz[b,e]azepin-11-ylidene)propyl]piperidin-4-ol] | < 1 | 
18 | 4-(4-Chlorophenyl)-1-[3-(7-diethylaminocarbonyl-5,11-dihydro[1]benzoxepino[2,3-b]pyridin-5-ylidene)propyl]piperidin-4-ol [Example 270] | < 1 | 
19 | 5-Chloro-1′-[3-(5,11-dihydro-7-methoxy[1]benzoxepino[2,3-b]pyridin-5-ylidene)propyl]spiro[isobenzofuran-1(3H), 4′-piperidine] [Example 91] | < 1 | 
20 | CCN(C(=O)Nc1ccc(Cl)cc1)C1CCN(CCC=C2c3cc(C(C)(C)O)ccc3OCc3ncccc32)C1 (stereo not shown) [Example 548, 3-(4-Chloro-phenyl)-1-ethyl-1-(1-{3-[7-(1-hydroxy-1-methyl-ethyl)-11H-10-oxa-1-aza-dibenzo[a,d]cyclohepten-5-ylidene]-propyl}-pyrrolidin-3-yl)-urea] | < 10 | 
21 | 1-[3-(5,11-Dihydro-7-methoxy[1]benzoxepino[2,3-b]pyridin-5-ylidene)propyl]-4-(2-pyrimidyl)piperazine [Example 72] | < 10 | 
22 | CC(C)(O)c1ccc2c(c1)C(=CCCN1CCC(O)(c3ccc(Cl)c(Cl)c3)CC1)c1cccnc1CO2 [Example 491, 4-(3,4-Dichloro-phenyl)-1-{3-[7-(1-hydroxy-1-methyl-ethyl)-11H-10-oxa-1-aza-dibenzo[a,d]cyclohepten-5-ylidene]-propyl}-piperidin-4-ol] | < 1 | 
23 | 1-[3-(7-(2-Carboxy)ethyl-5,11-dihydro[1]benzoxepino[2,3-b]pyridin-5-ylidene)propyl]-4-(4-chlorophenyl)-piperidin-4-ol [Example 123] | < 1 | 
24 | CCOC(=O)COc1ccc2c(c1)C(=CCCN1CCC(c3ccc(Cl)cc3)CC1)c1cccnc1CO2 [Example 153, 4-(4-Chlorophenyl)-1-[3-(5,11-dihydro-7-thoxycarbonylmethyloxy[1]benzoxepino[2,3-b]pyridin-5-ylidene)propyl]piperidine] | < 1 | 
25 | 4-(4-Chlorophenyl)-1-[3-(5,11-dihydro [1]benzoxepino[2,3-b]pyridin-5-ylidene)propyl]piperidin-4-ol [Example 53] | < 1 | 
26 | COc1ccc2c(c1)C(=CCCN1CCC(n3c(=O)[nH]c4ccccc43)CC1)c1cccnc1CO2 [Example 67, 1-[3-(5,11-Dihydro-7-methoxy[1]benzoxepino[2,3-b]pyridin-5-ylidene)propyl]-4-(2-keto-1-benzimidazolinyl)piperidine] | < 1 | 
27 | CC(C)(O)c1ccc2c(c1)C(=CCCN1CCC(CO)(c3ccc(Cl)cc3)CC1)c1cccnc1CO2 [Example 461, 2-(5-{3-[4-(4-Chloro-phenyl)-4-hydroxymethyl-piperidin-1-yl]-propylidene}-5,11-dihydro-10-oxa-1-aza-dibenzo[a,d]cyclohepten-7-yl)-propan-2-ol] | < 10 | 
28 | CC(C)(O)c1ccc2c(c1)C(=CCCN1CCC(N(Cc3ccc(Cl)cc3)C(=O)C3CCCC3)C1)c1cccnc1CO2 (stereo not shown) [Example 564, Cyclopentanecarboxylic acid (4-chloro-benzyl)-(1-{3-[7-(1-hydroxy-1-methyl-ethyl)-11H-10-oxa-1-aza-dibenzo[a,d]cyclohepten-5-ylidene]-propyl}-pyrrolidin-3-yl)-amide] | < 10 | 
29 | CC(C)(O)c1ccc2c(c1)C(=CCCN1CCC(O)(c3ccc(Cl)cc3)C(C)(CO)C1)c1cccnc1CO2 (single isomer, unassigned) [Example 483-1, 4-(4-Chloro-phenyl)-3-hydroxymethyl-1-{3-[7-(hydroxyl-1-methyl-ethyl)-11H-10-oxa-1-aza-dibenzo[a,d]cyclohepten-5-ylidene]-propyl}-3-methyl-piperidine-4-ol] | < 1 | more active enantiomer
30 | CC(C)(O)c1ccc2c(c1)C(=CCCN1CCC(C(=O)c3ccc(Cl)cc3)CC1)c1cccnc1CO2 [Example 496, (4-Chloro-phenyl)-(1-{3-[7-(1-hydroxy-1-methyl-ethyl)-11H-10-oxa-1-aza-dibenzo[a,d]cyclohepten-5-ylidene]-propyl}-piperidin-4-yl)-methanone] | < 10 | 
